From US6713057B1, “Compositions and methods for modulating serum cholesterol” (The Johns Hopkins University, priority 1999, dated 2004)

Assays:
SREBP-1 [1] = test: SREBP-1 proteolysis (maturation) assay, Western immunoblot of nuclear fractions, HH-25 hepatocytes; format: cell-based, human; conditions: for induction of SREBP-1 maturation (increase in mature SREBP-1), in words: HH-25 hepatocytes, sterol independent
Protocol: FIGS. 2A-2C illustrate effects of TNF-α sphingomyelinase and C2-ceramide on the kinetics of SREBP-1 maturation—FIGS. 2A-2C is explained in more detail as follows: Cells were maintained in media supplemented with 1 μg/ml 25-hydroxy cholesterol and 15 μg/ml cholesterol for 24 hours before the experiment. The cells were treated for the indicated time as described in materials and methods. The cells were then harvested in PBS, pelleted and frozen. Lysis and nuclear fractionation were performed as described. Nuclear fractions (50 μg of protein) were electrophoresed on a 7.5% polyacrylamide gel and transferred to a PVDF membrane. Western blotting was performed as described. Band intensity was quantified via densitometry. Error bars represent ±one standard deviation from the mean. 2A) The kinetics of SREBP maturation as measured by the increase in mature SREBP-1 are plotted. Fold increase was calculated by comparing each time point to the corresponding control value (TNF-α is represented by stippled bars, bacterial sphingomyelinase is represented by light gray bars and C2-ceramide by the dark bars.) 2B) Cells were treated with TNF-α (10 ng/ml) and prepared as described above. The bands corresponding to the precursor and mature forms of SREBP-1 were quantified and their ratio plotted. 2C) Representative Western blots from which numerical data was derived. Incubation time is indicated above and applies to all conditions. The membranes were exposed to film for 15 seconds. P and M denote the precursor and mature forms of SREBP-1 respectively.
FIGS. 3A-3C show effects of TNF-α, sphingomyelinase and C2-ceramide concentration on SREBP-1 maturation—The FIGS. 3A-3C are explained in more detail as follows. […] Nuclear pellets were prepared and electrophoresed (50 μg of protein). The bands corresponding to the precursor and mature forms of SREBP-1 were quantified. The precursor to mature ratios were normalized to a single control to facilitate comparison. The control ratio was arbitrarily assigned a value of 1. A Unit of sphingomyelinase activity hydrolyzes 1.0 μmol of sphingomyelin per minute at 37° C. FIG. 3A (ng/ml TNF-α); FIG. 3B (mUnits of sphingomyelinase); FIG. 3C (micromolar C2-ceramide).
HH-25 cells were grown in alpha-minimal essential media supplemented with 100 units/ml penicillin, 100 µg/ml streptomycin, […], 0.1 μM selenium, 5.5 μg/ml transferrin, 0.5 μg/ml linoleic acid and 10% fetal bovine serum (media A). The cells were incubated in serum free F10 media for 30 to 60 minutes prior to initiating treatment with TNF-α, C2-ceramide or sphingomyelinase.
Following treatment, the cells were washed with 5 ml of PBS and pelleted at 1500×g for 10 minutes at 4° C. The pellet was stored at −70° C. and lysed in 0.5 ml buffer A (10 mM HEPES pH 7.4, 5 mM EDTA, 0.25 mM EGTA, 50 mM NaF, 7 mM β-mercaptoethanol, 0.35M sucrose, 0.1% NP-40 and protease inhibitors 1 mM PMSF, 2 μg/ml aprotinin, 10 μg/ml leupeptin and 5 μg/ml pepstatin). The lysate was centrifuged at 12,000×g for 15 minutes at 4° C. to prepare a nuclear fraction. The protein concentration of these samples was determined by the method of Lowry et al. al. (19).
50 μg of nuclear protein was separated by gel electrophoresis on a 7.5% polyacrylamide gel. Gels were calibrated by high range molecular weight markers (Bio-Rad product #161-0303, New York, N.Y.) which were transferred to a polyvinyl difluoride (PVDF) membrane and visualized with coomassie staining. Rabbit polyclonal antibodies against SREBP-1 were used at 0.5 μg/ml according to the instructions of the manufacturer. The antibody was visualized with horseradish peroxidase conjugated anti-rabbit IgG made in donkey (Amersham) using the Enhanced Chemiluminescence (ECL) Western Blotting Detection System Kit (Amersham). PVDF membranes were exposed to Hyperfilm ECL (Amersham) for the indicated time. Immunoblots were quantified via densitometry performed on a PDI densitometer scanner (model 20J7) coupled to a SPARC IRC workstation.

SREBP-1 [2] = test: Indirect immunofluorescence of SREBP-1 subcellular localization; format: cell-based, human; conditions: 30 minutes after initiating treatment; TNF-α 10 ng/ml, sphingomyelinase 100 mUnits, C2-ceramide 10 μM
Protocol: FIGS. 5A-5D show indirect immunofluorescence of SREBP-1. FIGS. 5A-5D are discussed in more detail as follows. SREBP-1 was visualized with rabbit polyclonal antibodies directed towards the N-terminal DNA binding domain which is common to both the precursor and mature forms. Cells were maintained in media supplemented with 1 μg/ml 25-hydroxycholesterol and 15 μg/ml cholesterol for 24 hours before the experiment. Immunofluorescence was performed as described. All magnifications are 40× and all photographs were taken of samples that were fixed 30 minutes after initiating treatment. FIG. 5A) Control cells, FIG. 5B) Cells treated with TNF-α (10 ng/ml), FIG. 5C) Cells treated with sphingomyelinase (100 mUnits), FIG. 5D) Cells treated with C2-ceramide (10 μM).
Cultured HH-25 cells were grown on coverslips and treated as described. After treatment, the cells were washed 3×5 minutes with PBS containing 1 mM MgCl2 and 0.1 mM CaCl2 (solution A). The cells were fixed with 3% paraformaldehyde in solution A for 10 minutes and permeabilized with 0.5% Triton X-100 in solution A for 6 minutes at room temperature. The coverslips were then washed 3×5 minutes with solution A.
Primary antibody (anti-SREBP1) was used at a dilution of […] in PBS and applied for 1 hour with gentle shaking. The cells were washed as above and a FITC conjugated anti-rabbit IgG secondary antibody, was applied for ½ hour according to the instructions of the manufacturer. The coverslips were washed, mounted on microscope slides and were viewed and photographed at the indicated magnification on a Zeiss Axiovert 25 fluorescence microscope.

SREBP-1 [3] = test: Electrophoretic mobility shift assay, SREBP-1 binding to SRE probe; format: cell-based, human; conditions: TNF-α 10 ng/ml, sphingomyelinase 100 mUnits, C2-ceramide 10 μM
Protocol: FIGS. 6A-6D show electrophoretic mobility shift assays. FIGS. 6A-D are explained in more detail as follows. Cells were maintained in sterol supplemented media. Nuclear pellets were prepared and assayed as described in materials and methods. Probe that has been bound by mature SREBP-1 is indicated as “Bound”. Unbound probe is indicated as “Free”. The kinetics (in minutes) of SREBP-1 binding to the probe in response to treatment with (FIG. 6A). TNF-α (10 ng/ml), (FIG. 6B) sphingomyelinase (100 mUnits) and (FIG. 6C) C2-ceramide ([…]). (FIG. 6D). The cells were treated with either TNF-α (10 ng/ml), sphingomyelinase (100 mUnits) or C2-ceramide (10 μM) for 15 minutes. Supershift assays were then performed with antibodies raised against the DNA binding domain of SREBP-1. The presence or absence of antibody is indicated by (+) and (−) respectively. Pre-immune IgG was used as a control.
Gel mobility shift assays were performed as follows. Each 20 μl reaction mixture contained 8-10 μg of nuclear protein plus a α-[^32P]-labeled 25-base pair oligonucleotide probe containing the SREBP-binding site (14) in binding buffer (10 mM Hepes, pH 7.5, 0.5 mM spermidine, 0.15 mM EDTA, 10 mM dithiothreitol, 0.35 mM sucrose). The reaction mixture was incubated at room temperature for 15 min and loaded directly onto a 6.5% polyacrylamide (49:0.6 acrylamide/bisacrylamide) gel in a buffer of 25 mM Tris borate (pH 8.0), 0.25 mM EDTA. In some experiments, antisera specific for SREBP or preimmune sera were added to reaction mixtures to determine the composition of protein-probe complexes. For these “supershift” assays, extracts were incubated with 1 μl of preimmune sera or an equal volume of anti-SREBP antisera at 4° C. for 30 min prior to addition of α-[^32P]-labeled probe. In all experiments, proteins were separated by electrophoresis at 200 V for 2 h at room temperature. Gels were dried and exposed to Kodak XAR film with intensifying screens. Assays were repeated with nuclear extracts obtained from three unique experiments and evaluated by phosphoimage analysis to ensure reproducibility of results.

Protocol for HH-25 cells: Cells were treated with either TNF-α, sphingomyelinase or C2-ceramide for 1 hour at concentrations identical to those used in the SREBP-1 maturation studies. The cells were then washed twice with minimal essential medium and refed with media A for 6 hours. […] Genomic DNA was electrophoresed and stained with ethidium bromide.

amount of probe bound (electrophoretically retarded) by mature SREBP-1 (SREBP-1 [3])	Compound	induction of SREBP-1 maturation (increase in mature SREBP-1), in words (SREBP-1 [1])	decrease in the precursor to mature ratio (SREBP-1 [1]; 250 milliunits of sphingomyelinase activity)	increase in mass of the mature form of SREBP-1 (SREBP-1 [1]; after 15 minutes of treatment, sterol supplemented media)	persistence of the increase in mature SREBP-1 (SREBP-1 [1]; after 60 minutes)	subcellular localization of SREBP-1 (staining pattern) (SREBP-1 [2])	induction of apoptosis (160 bp DNA ladder) (HH-25 cells)
	PDGF	could not be recapitulated					
	CCCCCCCCCCCCCCC[C@@H](O)[C@H](CO)NC(C)=O [C2-dihydroceramide, reference compound]	could not be induced					
increases	Sphingomyelinase		80%	2.5 fold	persisted after 60 minutes	intense nuclear staining and little extra-nuclear staining	did not induce apoptosis
